Experiment: Biodistribution in normal mice (dissection, gamma counting)
Assay type: in vivo
Details: for % dose/g Blood / % dose/g Body leftover / % dose/g Bone / % dose/g Brain / % dose/g Fat / % dose/g Heart / % dose/g Intestine / % dose/g Kidney / % dose/g Liver / % dose/g Lung / % dose/g Muscle / % dose/g Pancreas / % dose/g Skin / % dose/g Spleen / % dose/g Stomach / % dose/g Tail / % dose/g Testes / % dose/g Thyroid / % dose/g Urogenital / % dose/organ Blood / % dose/organ Body leftover / % dose/organ Bone / % dose/organ Brain / % dose/organ Fat / % dose/organ Heart / % dose/organ Intestine / % dose/organ Kidney / % dose/organ Liver / % dose/organ Lung / % dose/organ Muscle / % dose/organ Pancreas / % dose/organ Skin / % dose/organ Spleen / % dose/organ Stomach / % dose/organ Tail / % dose/organ Testes / % dose/organ Thyroid / % dose/organ Urogenital: AVG
Protocol: While under anesthesia, 0.2 mL of saline solution containing 20 μCi of 3-(3-[18F]-fluoroazetidin-1-yl)-8-methylbenzo[4,5]imidazo[1,2-a]pyridine is injected directly into the tail vein. Three mice are used per time point and sacrificed in a staggered manner. The following organs and fluids are collected: Blood, Spleen, Thyroid, Testes, Heart, Liver, Pancreas, Kidneys, Muscle, Skin, Stomach, Bone, Lungs, Brain, Intestines, Urogenital system. The organs are weighted and the radioactivity of each organ is counted in an Automatic Gamma Counter (Perkin Elmer). For the skin, bone, muscle and blood, a sample is counted and the total weight of the organ or fluid is estimated. A sample of the injected dose is counted as reference. The Percentage Injected Dose per Gram of tissue (% ID/g) is calculated for each organ.

- % dose/g Blood (2 minutes): 2.52 % dose/g
- % dose/g Body leftover (2 minutes): 2.43 % dose/g
- % dose/g Bone (2 minutes): 1.89 % dose/g
- % dose/g Brain (2 minutes): 9.53 % dose/g
- % dose/g Fat (2 minutes): 1.09 % dose/g
- % dose/g Heart (2 minutes): 4.79 % dose/g
- % dose/g Intestine (2 minutes): 5.77 % dose/g
- % dose/g Kidney (2 minutes): 39.08 % dose/g
- % dose/g Liver (2 minutes): 7.32 % dose/g
- % dose/g Lung (2 minutes): 26.50 % dose/g
- % dose/g Muscle (2 minutes): 1.81 % dose/g
- % dose/g Pancreas (2 minutes): 8.74 % dose/g
- % dose/g Skin (2 minutes): 0.96 % dose/g
- % dose/g Spleen (2 minutes): 10.89 % dose/g
- % dose/g Stomach (2 minutes): 4.14 % dose/g
- % dose/g Tail (2 minutes): 14.93 % dose/g
- % dose/g Testes (2 minutes): 1.78 % dose/g
- % dose/g Thyroid (2 minutes): 6.01 % dose/g
- % dose/g Urogenital (2 minutes): 4.33 % dose/g
- % dose/organ Blood (2 minutes): 4.54 % dose/organ
- % dose/organ Body leftover (2 minutes): 38.48 % dose/organ
- % dose/organ Bone (2 minutes): 6.87 % dose/organ
- % dose/organ Brain (2 minutes): 4.42 % dose/organ
- % dose/organ Fat (2 minutes): 0.27 % dose/organ
- % dose/organ Heart (2 minutes): 0.72 % dose/organ
- % dose/organ Intestine (2 minutes): 15.39 % dose/organ
- % dose/organ Kidney (2 minutes): 15.93 % dose/organ
- % dose/organ Liver (2 minutes): 11.56 % dose/organ
- % dose/organ Lung (2 minutes): 5.18 % dose/organ
- % dose/organ Muscle (2 minutes): 19.01 % dose/organ
- % dose/organ Pancreas (2 minutes): 1.31 % dose/organ
- % dose/organ Skin (2 minutes): 3.74 % dose/organ
- % dose/organ Spleen (2 minutes): 1.00 % dose/organ
- % dose/organ Stomach (2 minutes): 1.52 % dose/organ
- % dose/organ Tail (2 minutes): 10.85 % dose/organ
- % dose/organ Testes (2 minutes): 0.30 % dose/organ
- % dose/organ Thyroid (2 minutes): 0.10 % dose/organ
- % dose/organ Urogenital (2 minutes): 0.75 % dose/organ
- % dose/g Blood (30 minutes): 1.14 % dose/g
- % dose/g Body leftover (30 minutes): 0.71 % dose/g
- % dose/g Bone (30 minutes): 0.93 % dose/g
- % dose/g Brain (30 minutes): 0.39 % dose/g
- % dose/g Fat (30 minutes): 0.63 % dose/g
- % dose/g Heart (30 minutes): 0.76 % dose/g
- % dose/g Intestine (30 minutes): 10.09 % dose/g
- % dose/g Kidney (30 minutes): 5.98 % dose/g
- % dose/g Liver (30 minutes): 2.76 % dose/g
- % dose/g Lung (30 minutes): 5.11 % dose/g
- % dose/g Muscle (30 minutes): 0.46 % dose/g
- % dose/g Pancreas (30 minutes): 1.15 % dose/g
- % dose/g Skin (30 minutes): 0.55 % dose/g
- % dose/g Spleen (30 minutes): 1.98 % dose/g
- % dose/g Stomach (30 minutes): 3.10 % dose/g
- % dose/g Tail (30 minutes): 2.77 % dose/g
- % dose/g Testes (30 minutes): 1.56 % dose/g
- % dose/g Thyroid (30 minutes): 0.81 % dose/g
- % dose/g Urogenital (30 minutes): 22.15 % dose/g
- % dose/organ Blood (30 minutes): 2.03 % dose/organ
- % dose/organ Body leftover (30 minutes): 10.62 % dose/organ
- % dose/organ Bone (30 minutes): 3.31 % dose/organ
- % dose/organ Brain (30 minutes): 0.17 % dose/organ
- % dose/organ Fat (30 minutes): 0.21 % dose/organ
- % dose/organ Heart (30 minutes): 0.11 % dose/organ
- % dose/organ Intestine (30 minutes): 28.28 % dose/organ
- % dose/organ Kidney (30 minutes): 2.56 % dose/organ
- % dose/organ Liver (30 minutes): 4.22 % dose/organ
- % dose/organ Lung (30 minutes): 0.99 % dose/organ
- % dose/organ Muscle (30 minutes): 4.68 % dose/organ
- % dose/organ Pancreas (30 minutes): 0.15 % dose/organ
- % dose/organ Skin (30 minutes): 2.10 % dose/organ
- % dose/organ Spleen (30 minutes): 0.19 % dose/organ
- % dose/organ Stomach (30 minutes): 1.80 % dose/organ
- % dose/organ Tail (30 minutes): 1.93 % dose/organ
- % dose/organ Testes (30 minutes): 0.23 % dose/organ
- % dose/organ Thyroid (30 minutes): 0.01 % dose/organ
- % dose/organ Urogenital (30 minutes): 3.92 % dose/organ
- % dose/g Blood (60 minutes): 0.87 % dose/g
- % dose/g Body leftover (60 minutes): 0.54 % dose/g
- % dose/g Bone (60 minutes): 0.97 % dose/g
- % dose/g Brain (60 minutes): 0.26 % dose/g
- % dose/g Fat (60 minutes): 0.27 % dose/g
- % dose/g Heart (60 minutes): 0.49 % dose/g
- % dose/g Intestine (60 minutes): 15.40 % dose/g
- % dose/g Kidney (60 minutes): 4.32 % dose/g
- % dose/g Liver (60 minutes): 3.10 % dose/g
- % dose/g Lung (60 minutes): 4.01 % dose/g
- % dose/g Muscle (60 minutes): 0.31 % dose/g
- % dose/g Pancreas (60 minutes): 0.60 % dose/g
- % dose/g Skin (60 minutes): 0.36 % dose/g
- % dose/g Spleen (60 minutes): 1.15 % dose/g
- % dose/g Stomach (60 minutes): 2.78 % dose/g
- % dose/g Tail (60 minutes): 2.10 % dose/g
- % dose/g Testes (60 minutes): 0.88 % dose/g
- % dose/g Thyroid (60 minutes): 0.68 % dose/g
- % dose/g Urogenital (60 minutes): 13.95 % dose/g
- % dose/organ Blood (60 minutes): 1.63 % dose/organ
- % dose/organ Body leftover (60 minutes): 8.64 % dose/organ
- % dose/organ Bone (60 minutes): 3.62 % dose/organ
- % dose/organ Brain (60 minutes): 0.09 % dose/organ
- % dose/organ Fat (60 minutes): 0.12 % dose/organ
- % dose/organ Heart (60 minutes): 0.08 % dose/organ
- % dose/organ Intestine (60 minutes): 32.10 % dose/organ
- % dose/organ Kidney (60 minutes): 1.73 % dose/organ
- % dose/organ Liver (60 minutes): 4.73 % dose/organ
- % dose/organ Lung (60 minutes): 0.74 % dose/organ
- % dose/organ Muscle (60 minutes): 3.30 % dose/organ
- % dose/organ Pancreas (60 minutes): 0.13 % dose/organ
- % dose/organ Skin (60 minutes): 1.44 % dose/organ
- % dose/organ Spleen (60 minutes): 0.12 % dose/organ
- % dose/organ Stomach (60 minutes): 3.25 % dose/organ
- % dose/organ Tail (60 minutes): 1.35 % dose/organ
- % dose/organ Testes (60 minutes): 0.20 % dose/organ
- % dose/organ Thyroid (60 minutes): 0.11 % dose/organ
- % dose/organ Urogenital (60 minutes): 3.23 % dose/organ
- % dose/g Blood (120 minutes): 0.50 % dose/g
- % dose/g Body leftover (120 minutes): 0.29 % dose/g
- % dose/g Bone (120 minutes): 0.72 % dose/g
- % dose/g Brain (120 minutes): 0.23 % dose/g
- % dose/g Fat (120 minutes): 0.11 % dose/g
- % dose/g Heart (120 minutes): 0.27 % dose/g
- % dose/g Intestine (120 minutes): 11.88 % dose/g
- % dose/g Kidney (120 minutes): 1.19 % dose/g
- % dose/g Liver (120 minutes): 1.35 % dose/g
- % dose/g Lung (120 minutes): 2.02 % dose/g
- % dose/g Muscle (120 minutes): 0.25 % dose/g
- % dose/g Pancreas (120 minutes): 0.23 % dose/g
- % dose/g Skin (120 minutes): 0.39 % dose/g
- % dose/g Spleen (120 minutes): 0.57 % dose/g
- % dose/g Stomach (120 minutes): 0.81 % dose/g
- % dose/g Tail (120 minutes): 0.84 % dose/g
- % dose/g Testes (120 minutes): 0.31 % dose/g
- % dose/g Thyroid (120 minutes): 0.60 % dose/g
- % dose/g Urogenital (120 minutes): 30.39 % dose/g
- % dose/organ Blood (120 minutes): 0.89 % dose/organ
- % dose/organ Body leftover (120 minutes): 4.42 % dose/organ
- % dose/organ Bone (120 minutes): 2.50 % dose/organ
- % dose/organ Brain (120 minutes): 0.11 % dose/organ
- % dose/organ Fat (120 minutes): 0.03 % dose/organ
- % dose/organ Heart (120 minutes): 0.04 % dose/organ
- % dose/organ Intestine (120 minutes): 32.80 % dose/organ
- % dose/organ Kidney (120 minutes): 0.44 % dose/organ
- % dose/organ Liver (120 minutes): 1.86 % dose/organ
- % dose/organ Lung (120 minutes): 0.37 % dose/organ
- % dose/organ Muscle (120 minutes): 2.51 % dose/organ
- % dose/organ Pancreas (120 minutes): 0.03 % dose/organ
- % dose/organ Skin (120 minutes): 1.46 % dose/organ
- % dose/organ Spleen (120 minutes): 0.05 % dose/organ
- % dose/organ Stomach (120 minutes): 0.45 % dose/organ
- % dose/organ Tail (120 minutes): 0.61 % dose/organ
- % dose/organ Testes (120 minutes): 0.05 % dose/organ
- % dose/organ Thyroid (120 minutes): 0.06 % dose/organ
- % dose/organ Urogenital (120 minutes): 6.52 % dose/organ
- clearance from the brain, remaining level (before the 30 min point): less than 10 % of the peak
- de-fluorination (radioactivity in bone tissue) (first two hours): do not undergo de-fluorination
- uptake by the muscle (over the study period): under 2 % ID/g
Structure (SMILES): Cc1ccc2nc3cc(N4CC([18F])C4)ccn3c2c1 [Compound 8, 3-(3-[18F]-fluoroazetidin-1-yl)-8-methylbenzo[4,5]imidazo[1,2-a]pyridine]

— patent publication US10301308B2, “Azetidine derivatives for tau imaging” (Eli Lilly and Company, priority 2015, dated 2019)
